{"source": "patent US10131652B2", "about": "“Pyrimidinyloxy benzene derivatives as herbicides” (E. I. DU PONT DE NEMOURS AND COMPANY, priority 2014, dated 2018)", "type_in_all_cases": "in vivo", "key": {"[1]": {"test_system": "Italian ryegrass (Lolium multiflorum)", "assay": "Test B pre-/postemergence plant response", "in_short": "(§1)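 Seeds in loam–sand blend given preemergence soil spray; separately, plants at one- to two-leaf stage (2–10 cm) sprayed postemergence, compounds in non-phytotoxic solvent with surfactant. Injury rated visually versus untreated controls after ~10 days in greenhouse, 0 (no effect) to 100 (complete control).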"}, "[2]": {"test_system": "kochia (Kochia scoparia)", "assay": "Test B pre-/postemergence plant response", "in_short": "as §1"}, "[3]": {"test_system": "ragweed (common ragweed, Ambrosia elatior)", "assay": "Test B pre-/postemergence plant response", "in_short": "as §1"}, "[4]": {"test_system": "corn (Zea mays)", "assay": "Test D pre-/postemergence plant response", "conditions": "Postemergence", "in_short": "(§2)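 Pre-/post-emergence greenhouse test. Pre: seeded loam+sand, sprayed same day. Post: 1–4 leaf plants (2–18 cm), peat/vermiculite mix. Formulation: non-phytotoxic solvent + surfactant. Scored visually d13–15, 0–100 vs control.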"}, "[5]": {"test_system": "barnyardgrass (Echinochloa crus-galli)", "assay": "Test D pre-/postemergence plant response", "conditions": "Postemergence", "in_short": "as §2"}, "[6]": {"test_system": "blackgrass (Alopecurus myosuroides)", "assay": "Test D pre-/postemergence plant response", "conditions": "Postemergence", "in_short": "as §2"}, "[7]": {"test_system": "Italian ryegrass (Lolium multiflorum)", "assay": "Test D pre-/postemergence plant response", "conditions": "Postemergence", "in_short": "as §2"}, "[8]": {"test_system": "yellow nutsedge (Cyperus esculentus)", "assay": "Test D pre-/postemergence plant response", "conditions": "Postemergence", "in_short": "as §2"}, "[9]": {"test_system": "large (Lg) crabgrass (Digitaria sanguinalis)", "assay": "Test D pre-/postemergence plant response", "conditions": "Postemergence", "in_short": "as §2"}, "[10]": {"test_system": "galium (catchweed bedstraw, Galium aparine)", "assay": "Test D pre-/postemergence plant response", "conditions": "Postemergence", "in_short": "as §2"}, "[11]": {"test_system": "oilseed rape (Brassica napus)", "assay": "Test D pre-/postemergence plant response", "conditions": "Postemergence", "in_short": "as §2"}, "[12]": {"test_system": "giant foxtail (Setaria faberii)", "assay": "Test D pre-/postemergence plant response", "conditions": "Postemergence", "in_short": "as §2"}, "[13]": {"test_system": "pigweed (Amaranthus retroflexus)", "assay": "Test D pre-/postemergence plant response", "conditions": "Postemergence", "in_short": "as §2"}, "[14]": {"test_system": "ragweed (common ragweed, Ambrosia elatior)", "assay": "Test D pre-/postemergence plant response", "conditions": "Postemergence", "in_short": "as §2"}, "[15]": {"conditions": "31 g ai/ha, Preemergence, 0 to 100 scale where 0 is no effect and 100 is complete control"}, "[16]": {"conditions": "125 g ai/ha, postemergence, 0 to 100 scale, 0 no effect, 100 complete control"}, "[17]": {"conditions": "Postemergence, 31 g ai/ha, 0 to 100 scale (0 no effect, 100 complete control)"}, "[18]": {"conditions": "Preemergence, 125 g ai/ha, 0 to 100 scale (0 no effect, 100 complete control)"}, "[19]": {"conditions": "31 g ai/ha, scale 0 to 100 (0 no effect, 100 complete control)"}, "[20]": {"conditions": "62 g ai/ha, scale 0 to 100, 0 no effect, 100 complete control"}, "[21]": {"conditions": "125 g ai/ha, scale 0 to 100, 0 no effect, 100 complete control"}}}
{"molecule": "Cc1cc(-c2c(F)cccc2Oc2ncc(Br)cn2)on1", "note": "[Compound 230]", "values": [{"measurement": "Plant response rating, Ryegrass, Italian", "setting": "[1]; [15]", "value": 0}, {"measurement": "Plant response rating, Ryegrass, Italian", "setting": "[1]; [16]", "value": 0}, {"measurement": "Plant response rating, Ryegrass, Italian", "setting": "[1]; [17]", "value": 0}, {"measurement": "Ryegrass, Italian plant response rating", "setting": "[1]; [18]", "value": 0}, {"measurement": "Plant response rating, Kochia", "setting": "[2]; [15]", "value": 60}, {"measurement": "Plant response rating, Kochia", "setting": "[2]; [16]", "value": 100}, {"measurement": "Plant response rating, Kochia", "setting": "[2]; [17]", "value": 80}, {"measurement": "Kochia plant response rating", "setting": "[2]; [18]", "value": 100}, {"measurement": "Plant response rating, Ragweed", "setting": "[3]; [15]", "value": 20}, {"measurement": "Plant response rating, Ragweed", "setting": "[3]; [16]", "value": 100}, {"measurement": "Plant response rating, Ragweed", "setting": "[3]; [17]", "value": 70}, {"measurement": "Ragweed plant response rating", "setting": "[3]; [18]", "value": 80}, {"measurement": "Plant response rating (scale 0 to 100), Corn", "setting": "[4]; 16 g ai/ha", "value": 0}, {"measurement": "Corn plant response rating", "setting": "[4]; [19]", "value": 0}, {"measurement": "Corn plant response rating", "setting": "[4]; [20]", "value": 0}, {"measurement": "Plant response rating, Corn", "setting": "[4]; [21]", "value": 15}, {"measurement": "Plant response rating (scale 0 to 100), Barnyardgrass", "setting": "[5]; 16 g ai/ha", "value": 5}, {"measurement": "Barnyardgrass plant response rating", "setting": "[5]; [19]", "value": 5}, {"measurement": "Barnyardgrass plant response rating", "setting": "[5]; [20]", "value": 10}, {"measurement": "Plant response rating, Barnyardgrass", "setting": "[5]; [21]", "value": 5}, {"measurement": "Plant response rating (scale 0 to 100), Blackgrass", "setting": "[6]; 16 g ai/ha", "value": 0}, {"measurement": "Blackgrass plant response rating", "setting": "[6]; [19]", "value": 10}, {"measurement": "Blackgrass plant response rating", "setting": "[6]; [20]", "value": 10}, {"measurement": "Plant response rating, Blackgrass", "setting": "[6]; [21]", "value": 10}, {"measurement": "Plant response rating (scale 0 to 100), Ryegrass, Italian", "setting": "[7]; 16 g ai/ha", "value": 0}, {"measurement": "Ryegrass, Italian plant response rating", "setting": "[7]; [19]", "value": 0}, {"measurement": "Ryegrass, Italian plant response rating", "setting": "[7]; [20]", "value": 5}, {"measurement": "Plant response rating, Ryegrass, Italian", "setting": "[7]; [21]", "value": 5}, {"measurement": "Plant response rating (scale 0 to 100), Nutsedge, Yellow", "setting": "[8]; 16 g ai/ha", "value": 0}, {"measurement": "Nutsedge, Yellow plant response rating", "setting": "[8]; [19]", "value": 0}, {"measurement": "Nutsedge, Yellow plant response rating", "setting": "[8]; [20]", "value": 5}, {"measurement": "Plant response rating, Nutsedge, Yellow", "setting": "[8]; [21]", "value": 5}, {"measurement": "Plant response rating (scale 0 to 100), Crabgrass, Large", "setting": "[9]; 16 g ai/ha", "value": 0}, {"measurement": "Crabgrass, Large plant response rating", "setting": "[9]; [19]", "value": 5}, {"measurement": "Crabgrass, Large plant response rating", "setting": "[9]; [20]", "value": 5}, {"measurement": "Plant response rating, Crabgrass, Large", "setting": "[9]; [21]", "value": 10}, {"measurement": "Plant response rating (scale 0 to 100), Galium", "setting": "[10]; 16 g ai/ha", "value": 80}, {"measurement": "Galium plant response rating", "setting": "[10]; [19]", "value": 85}, {"measurement": "Galium plant response rating", "setting": "[10]; [20]", "value": 85}, {"measurement": "Plant response rating, Galium", "setting": "[10]; [21]", "value": 95}, {"measurement": "Plant response rating (scale 0 to 100), Oilseed Rape", "setting": "[11]; 16 g ai/ha", "value": 50}, {"measurement": "Oilseed Rape plant response rating", "setting": "[11]; [19]", "value": 60}, {"measurement": "Oilseed Rape plant response rating", "setting": "[11]; [20]", "value": 75}, {"measurement": "Plant response rating, Oilseed Rape", "setting": "[11]; [21]", "value": 75}, {"measurement": "Plant response rating (scale 0 to 100), Foxtail, Giant", "setting": "[12]; 16 g ai/ha", "value": 5}, {"measurement": "Foxtail, Giant plant response rating", "setting": "[12]; [19]", "value": 5}, {"measurement": "Foxtail, Giant plant response rating", "setting": "[12]; [20]", "value": 10}, {"measurement": "Plant response rating, Foxtail, Giant", "setting": "[12]; [21]", "value": 10}, {"measurement": "Plant response rating (scale 0 to 100), Pigweed", "setting": "[13]; 16 g ai/ha", "value": 60}, {"measurement": "Pigweed plant response rating", "setting": "[13]; [19]", "value": 65}, {"measurement": "Pigweed plant response rating", "setting": "[13]; [20]", "value": 70}, {"measurement": "Plant response rating, Pigweed", "setting": "[13]; [21]", "value": 85}, {"measurement": "Plant response rating (scale 0 to 100), Ragweed", "setting": "[14]; 16 g ai/ha", "value": 30}, {"measurement": "Ragweed plant response rating", "setting": "[14]; [19]", "value": 40}, {"measurement": "Ragweed plant response rating", "setting": "[14]; [20]", "value": 55}, {"measurement": "Plant response rating, Ragweed", "setting": "[14]; [21]", "value": 55}]}
